Activation and inhibition data for 21 compounds are collected here from US8148373B2, “Compounds” (AstraZeneca AB, priority 2008, dated 2012).

For assay [1], the target named is T1, Adrenergic β2 (H292 cells) (Homo sapiens, UniProt P07550).
T1 construct: endogenous in cells; host or cells: H292 cells
Put plainly: Adrenergic β2 Mediated cAMP Production, single concentration 1 μM. To be noted: NCI-H292, 1 μM compound, percentage of the maximum response generated by 1E-07M formoterol, read-out: β2 (% effect at 1 μM). The class given is cell-based. Put shortly: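 H292 cells were plated overnight, pre-treated with 300 μM rolipram for 10 min, then exposed to compound at 1 μM final (1% DMSO) for 60 min at room temperature. cAMP in the lysates was measured by AlphaScreen against a standard curve and expressed as % of the maximal response to 1E-07M formoterol.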

In assay [2] the target is T2, human muscarinic acetylcholine M3 receptor (M3-ACh) (Homo sapiens, UniProt P20309).
T2 construct: expressed in transfected cells; host or cells: CHO-K1 (Chinese Hamster Ovary) cell membranes
T2 sequence (P20309 whole entry): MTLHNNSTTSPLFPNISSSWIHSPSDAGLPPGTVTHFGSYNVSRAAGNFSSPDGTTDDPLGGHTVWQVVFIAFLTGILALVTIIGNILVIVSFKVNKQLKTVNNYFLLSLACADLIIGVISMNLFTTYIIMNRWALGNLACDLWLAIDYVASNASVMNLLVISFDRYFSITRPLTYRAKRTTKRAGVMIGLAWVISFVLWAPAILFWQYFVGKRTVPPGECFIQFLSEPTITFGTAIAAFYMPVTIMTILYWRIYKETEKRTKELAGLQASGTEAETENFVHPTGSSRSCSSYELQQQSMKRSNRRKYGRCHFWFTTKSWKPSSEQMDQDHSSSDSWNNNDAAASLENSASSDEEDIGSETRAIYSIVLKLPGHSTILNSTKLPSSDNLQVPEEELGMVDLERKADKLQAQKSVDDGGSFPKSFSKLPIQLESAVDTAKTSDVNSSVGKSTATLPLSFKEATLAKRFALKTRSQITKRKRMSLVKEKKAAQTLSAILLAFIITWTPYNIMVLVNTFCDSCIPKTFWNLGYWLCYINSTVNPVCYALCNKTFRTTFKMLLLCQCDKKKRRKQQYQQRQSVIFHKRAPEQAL
The experiment in a line: Muscarinic 3 Receptor Binding Assay, % inhibition specific binding at 1 μM. To be noted: 1 μM compound, % inhibition specific [3H]-NMS binding. Put shortly: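 Competition binding of 0.1 nM [3H]NMS to membranes from CHO-K1 cells expressing human M3, SPA format, with compound at 1 μM in 20 mM HEPES pH 7.4, 5 mM MgCl2, 1% DMSO. Incubated 16 h at room temperature; non-specific binding defined by 1 μM atropine; value is % inhibition of specific binding.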

T1 sequence (P07550 whole entry): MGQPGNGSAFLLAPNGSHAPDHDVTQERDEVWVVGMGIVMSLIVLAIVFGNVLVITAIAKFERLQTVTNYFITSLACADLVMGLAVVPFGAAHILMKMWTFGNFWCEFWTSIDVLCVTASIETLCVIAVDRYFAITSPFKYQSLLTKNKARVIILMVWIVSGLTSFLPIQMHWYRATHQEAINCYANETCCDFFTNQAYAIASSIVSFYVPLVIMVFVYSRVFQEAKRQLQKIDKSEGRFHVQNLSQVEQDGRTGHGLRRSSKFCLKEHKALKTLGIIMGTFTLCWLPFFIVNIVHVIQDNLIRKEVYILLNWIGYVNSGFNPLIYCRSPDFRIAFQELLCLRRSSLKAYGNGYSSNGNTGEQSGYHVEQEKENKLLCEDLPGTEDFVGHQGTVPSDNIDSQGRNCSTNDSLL

For the compound `O=C(c1cc2cc(Cl)ccc2o1)N1CCOC2(CCN(Cc3cc(F)cc(CCNC[C@H](O)c4ccc(O)c5[nH]c(=O)sc45)c3)CC2)C1` [Example 182, (R)-7-(2-(3-((4-(5-chlorobenzofuran-2-carbonyl)-1-oxa-4,9-diazaspiro[5.5]undecan-9-yl)methyl)-5-fluorophenethylamino)-1-hydroxyethyl)-4-hydroxybenzo[d]thiazol-2(3H)-one], the activation at 1 µM in assay [1] worked out at 88%. Also, the inhibition at 1 µM in assay [2] is 16%.
As to `O=C(CCCc1cccs1)N1CCOC2(CCN(CCCCCCCCCNC[C@H](O)c3ccc(O)c4[nH]c(=O)sc34)CC2)C1` [Example 183, (R)-4-hydroxy-7-(1-hydroxy-2-(9-(4-(4-(thiophen-2-yl)butanoyl)-1-oxa-4,9-diazaspiro[5.5]undecan-9-yl)nonylamino)ethyl)benzo[d]thiazol-2(3H)-one], the activation at 1 µM in assay [1] is 91%. This compound came in with an inhibition at 1 µM in assay [2] of 97%.
In the case of `Cn1cccc1C(=O)N1CCOC2(CCN(CCCCCCCCCNC[C@H](O)c3ccc(O)c4[nH]c(=O)sc34)CC2)C1` [Example 184, (R)-4-hydroxy-7-(1-hydroxy-2-(9-(4-(1-methyl-1H-pyrrole-2-carbonyl)-1-oxa-4,9-diazaspiro[5.5]undecan-9-yl)nonylamino)ethyl)benzo[d]thiazol-2(3H)-one], in assay [1], the activation at 1 µM was 89%. Besides, the inhibition at 1 µM in assay [2] was determined as 96%.
On the same counts, the results for `O=C(Cc1cccs1)N1CCOC2(CCN(CCCCCCCCCNC[C@H](O)c3ccc(O)c4[nH]c(=O)sc34)CC2)C1` [Example 185, (R)-4-hydroxy-7-(1-hydroxy-2-(9-(4-(2-(thiophen-2-yl)acetyl)-1-oxa-4,9-diazaspiro[5.5]undecan-9-yl)nonylamino)ethyl)benzo[d]thiazol-2(3H)-one] are 81% and 95%.
With `O=C(Cc1ccccc1)N1CCOC2(CCN(CCCCCCCCCNC[C@H](O)c3ccc(O)c4[nH]c(=O)sc34)CC2)C1` [Example 186, (R)-4-hydroxy-7-(1-hydroxy-2-(9-(4-(2-phenylacetyl)-1-oxa-4,9-diazaspiro[5.5]undecan-9-yl)nonylamino)ethyl)benzo[d]thiazol-2(3H)-one], the activation at 1 µM in assay [1] is 86%. Besides, testing at 1 µM in assay [2] gave an inhibition of 95%.
As to `O=C(CCc1ccccc1)N1CCOC2(CCN(CCCCCCCCCNC[C@H](O)c3ccc(O)c4[nH]c(=O)sc34)CC2)C1` [Example 187, (R)-4-hydroxy-7-(1-hydroxy-2-(9-(4-(3-phenylpropanoyl)-1-oxa-4,9-diazaspiro[5.5]undecan-9-yl)nonylamino)ethyl)benzo[d]thiazol-2(3H)-one], the activation at 1 µM in assay [1] was determined as 92%. For the same compound, testing at 1 µM in assay [2] gave an inhibition of 84%.
On the same counts, the results for `O=C(CCCc1ccccc1)N1CCOC2(CCN(CCCCCCCCCNC[C@H](O)c3ccc(O)c4[nH]c(=O)sc34)CC2)C1` [Example 188, (R)-4-hydroxy-7-(1-hydroxy-2-(9-(4-(4-phenylbutanoyl)-1-oxa-4,9-diazaspiro[5.5]undecan-9-yl)nonylamino)ethyl)benzo[d]thiazol-2(3H)-one] are 93% and 96%.
On the same counts, the results for `CC(C)(C(=O)N1CCOC2(CCN(CCCCCCCCCNC[C@H](O)c3ccc(O)c4[nH]c(=O)sc34)CC2)C1)c1ccccc1` [Example 189, (R)-4-hydroxy-7-(1-hydroxy-2-(9-(4-(2-methyl-2-phenylpropanoyl)-1-oxa-4,9-diazaspiro[5.5]undecan-9-yl)nonylamino)ethyl)benzo[d]thiazol-2(3H)-one] are 93% and 96%.
For the compound `Cc1ccsc1C(=O)N1CCOC2(CCN(CCCCCCCCCNC[C@H](O)c3ccc(O)c4[nH]c(=O)sc34)CC2)C1` [Example 191, (R)-4-hydroxy-7-(1-hydroxy-2-(9-(4-(3-methylthiophene-2-carbonyl)-1-oxa-4,9-diazaspiro[5.5]undecan-9-yl)nonylamino)ethyl)benzo[d]thiazol-2(3H)-one], the activation at 1 µM in assay [1] came out at 82%. This compound returned an inhibition at 1 µM in assay [2] of 94%.
The corresponding values for `O=C(Cc1ccsc1)N1CCOC2(CCN(CCCCCCCCCNC[C@H](O)c3ccc(O)c4[nH]c(=O)sc34)CC2)C1` [Example 192, (R)-4-hydroxy-7-(1-hydroxy-2-(9-(4-(2-(thiophen-3-yl)acetyl)-1-oxa-4,9-diazaspiro[5.5]undecan-9-yl)nonylamino)ethyl)benzo[d]thiazol-2(3H)-one] are 88% and 96%.
For `Cc1ccoc1C(=O)N1CCOC2(CCN(CCCCCCCCCNC[C@H](O)c3ccc(O)c4[nH]c(=O)sc34)CC2)C1` [Example 193, (R)-4-hydroxy-7-(1-hydroxy-2-(9-(4-(3-methylfuran-2-carbonyl)-1-oxa-4,9-diazaspiro[5.5]undecan-9-yl)nonylamino)ethyl)benzo[d]thiazol-2(3H)-one], the activation at 1 µM in assay [1] is 91%. For the same compound, in assay [2], the inhibition at 1 µM was determined as 99%.
The corresponding values for `O=C(c1cc2ccccc2s1)N1CCOC2(CCN(CCCCCCCCCNC[C@H](O)c3ccc(O)c4[nH]c(=O)sc34)CC2)C1` [Example 194, (R)-7-(2-(9-(4-(benzo[b]thiophene-2-carbonyl)-1-oxa-4,9-diazaspiro[5.5]undecan-9-yl)nonylamino)-1-hydroxyethyl)-4-hydroxybenzo[d]thiazol-2(3H)-one] are 92% and 85%.
Turning to `Cc1cc(C(=O)N2CCOC3(CCN(CCCCCCCCCNC[C@H](O)c4ccc(O)c5[nH]c(=O)sc45)CC3)C2)oc1C` [Example 195, (R)-7-(2-(9-(4-(4,5-dimethylfuran-2-carbonyl)-1-oxa-4,9-diazaspiro[5.5]undecan-9-yl)nonylamino)-1-hydroxyethyl)-4-hydroxybenzo[d]thiazol-2(3H)-one], in assay [1], the activation at 1 µM stood at 86%. The compound further had an inhibition at 1 µM in assay [2] of 88%.
On the same counts, the results for `Cc1cccc(C(=O)N2CCOC3(CCN(CCCCCCCCCNC[C@H](O)c4ccc(O)c5[nH]c(=O)sc45)CC3)C2)n1` [Example 196, (R)-4-hydroxy-7-(1-hydroxy-2-(9-(4-(6-methylpicolinoyl)-1-oxa-4,9-diazaspiro[5.5]undecan-9-yl)nonylamino)ethyl)benzo[d]thiazol-2(3H)-one] are 89% and 95%.
On the same counts, the results for `Cc1occc1C(=O)N1CCOC2(CCN(CCCCCCCCCNC[C@H](O)c3ccc(O)c4[nH]c(=O)sc34)CC2)C1` [Example 197, (R)-4-hydroxy-7-(1-hydroxy-2-(9-(4-(2-methylfuran-3-carbonyl)-1-oxa-4,9-diazaspiro[5.5]undecan-9-yl)nonylamino)ethyl)benzo[d]thiazol-2(3H)-one] are 78% and 97%.
The corresponding values for `O=C(COc1ccccc1)N1CCOC2(CCN(CCCCCCCCCNC[C@H](O)c3ccc(O)c4[nH]c(=O)sc34)CC2)C1` [Example 199, (R)-4-hydroxy-7-(1-hydroxy-2-(9-(4-(2-phenoxyacetyl)-1-oxa-4,9-diazaspiro[5.5]undecan-9-yl)nonylamino)ethyl)benzo[d]thiazol-2(3H)-one] are 91% and 91%.
In the case of `Cc1ccnn1CC(=O)N1CCOC2(CCN(CCCCCCCCCNC[C@H](O)c3ccc(O)c4[nH]c(=O)sc34)CC2)C1` [Example 200, (R)-4-hydroxy-7-(1-hydroxy-2-(9-(4-(2-(5-methyl-1H-pyrazol-1-yl)acetyl)-1-oxa-4,9-diazaspiro[5.5]undecan-9-yl)nonylamino)ethyl)benzo[d]thiazol-2(3H)-one], the activation at 1 µM in assay [1] was found to be 92%. Further, in assay [2], at 1 µM the inhibition was 70%.
The corresponding values for `O=C(COCc1ccccc1)N1CCOC2(CCN(CCCCCCCCCNC[C@H](O)c3ccc(O)c4[nH]c(=O)sc34)CC2)C1` [Example 203, (R)-7-(2-(9-(4-(2-(benzyloxy)acetyl)-1-oxa-4,9-diazaspiro[5.5]undecan-9-yl)nonylamino)-1-hydroxyethyl)-4-hydroxybenzo[d]thiazol-2(3H)-one] are 99% and 94%.
Turning to `Cc1ccn(CC(=O)N2CCOC3(CCN(CCCCCCCCCNC[C@H](O)c4ccc(O)c5[nH]c(=O)sc45)CC3)C2)n1` [Example 204, (R)-4-hydroxy-7-(1-hydroxy-2-(9-(4-(2-(3-methyl-1H-pyrazol-1-yl)acetyl)-1-oxa-4,9-diazaspiro[5.5]undecan-9-yl)nonylamino)ethyl)benzo[d]thiazol-2(3H)-one], in assay [1], the activation at 1 µM came to 101%. Also, testing at 1 µM in assay [2] gave an inhibition of 97%.
The corresponding values for `Cc1sccc1C(=O)N1CCOC2(CCN(CCCCCCCCCNC[C@H](O)c3ccc(O)c4[nH]c(=O)sc34)CC2)C1` [Example 205, (R)-4-hydroxy-7-(1-hydroxy-2-(9-(4-(2-methylthiophene-3-carbonyl)-1-oxa-4,9-diazaspiro[5.5]undecan-9-yl)nonylamino)ethyl)benzo[d]thiazol-2(3H)-one] are 85% and 91%.
Take `O=C(CCOc1ccccc1)N1CCOC2(CCN(CCCCCCCCCNC[C@H](O)c3ccc(O)c4[nH]c(=O)sc34)CC2)C1` [Example 206, (R)-4-hydroxy-7-(1-hydroxy-2-(9-(4-(3-phenoxypropanoyl)-1-oxa-4,9-diazaspiro[5.5]undecan-9-yl)nonylamino)ethyl)benzo[d]thiazol-2(3H)-one]: the activation at 1 µM in assay [1] is 95%. Besides, in assay [2], the inhibition at 1 µM was found to be 95%.
